The series can be described thus: solubility in methanol and water. The series is classed as physicochemical. Particulars: for solubility in methanol: methanol (MeOH). On the procedure: Synthesis of glyconanoparticles: A solution of disulphide 1,2, or 3 (0.012M, 5.5 eq) in MeOH was added to a solution of tetrachloroauric acid (0.025M, 1 eq) in water. NaBH4 (1M, 22 eq) in water was added in small portions with rapid stirring. The black suspension that was formed was stirred for additional 2 hours and the solvent was then removed under vacuum. The crude of the reaction was washed with MeOH and was centrifuged for 10 minutes. The methanol was removed and the process was repeated several times until the starting material was not detected by TLC. The glyco-nanoparticles are completely insoluble in MeOH but quite soluble in water. • They were purified by dialysis: 50 mg of crude product was dissolved in 10 mL of water (NANOpure). This solution was loaded into 10 cm segments of cellulose ester dialysis membrane (SIGMA, MWCO=12400) and placed in 4 L of water (NANOpure). The dark glyconanoparticles solution was collected from the dialysis segments and lyophilized. The products obtained were free of salts and starting material (absence of signals due to disulphide and Na^+ in NMR).
The presentation of the carbohydrate molecules at the nanoparticles surface was then investigated. The molecular properties of the neoglycoconjugates 1, 2 and 3 suffer a differential change after attaching them to the gold surface. […] The Le^x derivative 3 is soluble in methanol and water, its nanoparticle 3-Au, however, is insoluble in methanol and very soluble in water. These differences in solubility can be used to purify the glyconanoparticles from the non-reacted disulfides by washing them with methanol. However, the most significant fact in these changes is that they reveal the influence of clustering at the surface on the carbohydrate presentation to the surrounding.

Regarding `OCC1OC(OC2C(CO)OC(OCCCCCCCCCCCSSCCCCCCCCCCCOC3OC(CO)C(OC4OC(CO)C(O)C(O)C4O)C(O)C3O)C(O)C2O)C(O)C(O)C1O` (stereo not shown) [Compound 2], the solubility in methanol entry is recorded as “soluble” and the solubility in water result was “insoluble”.
Taken in the same sequence, the figures for `CC(=O)N[C@H]1[C@H](OCCCCCCCCCCCSSCCCCCCCCCCCO[C@@H]2O[C@H](CO)[C@@H](O[C@@H]3O[C@H](CO)[C@H](O)[C@H](O)[C@H]3O)[C@H](O[C@@H]3O[C@@H](C)[C@@H](O)[C@@H](O)[C@@H]3O)[C@H]2NC(C)=O)O[C@H](CO)[C@@H](O[C@@H]2O[C@H](CO)[C@H](O)[C@H](O)[C@H]2O)[C@@H]1O[C@@H]1O[C@@H](C)[C@@H](O)[C@@H](O)[C@@H]1O` [Compound 3] were “soluble” and “soluble”.

(Values after US8790934B2, “Nanoparticles” (Consejo Superior de Investigaciones Cientificas, priority 2000, dated 2014).)
